The results in this text go back to patent US20200061062A1, “INHIBITORS OF HUMAN PHOSPHATIDYLINOSITOL 3-KINASE DELTA” (ICOS Corporation, priority 2000, published 2020).

One may read the remaining activity as the signal under treatment as a percentage of the control signal. As a reminder, the melting point is the temperature, or range, at which the solid turns liquid.

Like-named read-outs stand apart in the source and are kept apart here.

The target of one data set is PI3Kδ (Homo sapiens, UniProt O00329, S253N). The data set is described as follows: Biochemical assay of PI3K potency and selectivity using 20 μM ATP, Delta. Also on record: His tag (pFastbac HTb vector) (N); FLAG; made in house; host or cells: Sf21 insect cells (baculovirus). To be noted: 20 μM ATP; read-out: Delta IC50. The text has this: (§1) Recombinant PI3K heterodimeric complexes consisting of a p110 catalytic subunit and a p85 regulatory subunit were overexpressed using the BAC-TO-BAC® HT baculovirus expression system (GIBCO/BRL), and then purified for use in biochemical assays. The four Class I PI 3-kinases were cloned into baculovirus vectors as follows: […]

The target of a further data set is T1, PI3Kα (Homo sapiens, UniProt P42336).
T1 construct: His tag (pFastbac HTb vector) (N); FLAG; made in house; host or cells: Sf21 insect cells (baculovirus)
The data set is described as follows: Biochemical assay of PI3K potency and selectivity using 20 μM ATP, Alpha. Conditions: for Alpha/Delta Ratio: ratio of IC50 values, > = hypothetical ratio with 100 μM substituted for the missing IC50; for IC50: read-out: Alpha IC50.
Text: as §1

Another data set has as its target T2, PI3Kβ (Homo sapiens, UniProt P42338).
T2 construct: His tag (pFastbac HTa vector) (N); FLAG (N); made in house; host or cells: Sf21 insect cells (baculovirus)
The data set is described as follows: Biochemical assay of PI3K potency and selectivity using 20 μM ATP, Beta. To be noted: 20 μM ATP; for Beta/Delta Ratio: ratio of IC50 values, > = hypothetical ratio with 100 μM substituted for the missing IC50; for IC50: read-out: Beta IC50; for remaining activity at 100 µM: read-out: Beta: percent activity remaining at 100 μM, 100 μM compound did not inhibit by at least 50%. The method, then:
Recombinant PI3K heterodimeric complexes consisting of a p110 catalytic subunit and a p85 regulatory subunit were overexpressed using the BAC-TO-BAC® HT baculovirus expression system (GIBCO/BRL), and then purified for use in biochemical assays. The four Class I PI 3-kinases were cloned into baculovirus vectors as follows:
The 3× substrate for the HTS contained 0.6 mM Na2ATP, 0.10 mCi/mL γ-[^32P]ATP (NEN, Pittsburgh, Pa.), 6 μM PIP2/PS liposomes (Avanti Polar Lipids, Inc., […].), in 20 mM HEPES, pH 7.4.

Where [1] appears, read: read-out: percent activity remaining at 100 μM, 20 μM ATP, 100 μM compound did not inhibit by at least 50%.

T2 sequence (P42338 whole entry): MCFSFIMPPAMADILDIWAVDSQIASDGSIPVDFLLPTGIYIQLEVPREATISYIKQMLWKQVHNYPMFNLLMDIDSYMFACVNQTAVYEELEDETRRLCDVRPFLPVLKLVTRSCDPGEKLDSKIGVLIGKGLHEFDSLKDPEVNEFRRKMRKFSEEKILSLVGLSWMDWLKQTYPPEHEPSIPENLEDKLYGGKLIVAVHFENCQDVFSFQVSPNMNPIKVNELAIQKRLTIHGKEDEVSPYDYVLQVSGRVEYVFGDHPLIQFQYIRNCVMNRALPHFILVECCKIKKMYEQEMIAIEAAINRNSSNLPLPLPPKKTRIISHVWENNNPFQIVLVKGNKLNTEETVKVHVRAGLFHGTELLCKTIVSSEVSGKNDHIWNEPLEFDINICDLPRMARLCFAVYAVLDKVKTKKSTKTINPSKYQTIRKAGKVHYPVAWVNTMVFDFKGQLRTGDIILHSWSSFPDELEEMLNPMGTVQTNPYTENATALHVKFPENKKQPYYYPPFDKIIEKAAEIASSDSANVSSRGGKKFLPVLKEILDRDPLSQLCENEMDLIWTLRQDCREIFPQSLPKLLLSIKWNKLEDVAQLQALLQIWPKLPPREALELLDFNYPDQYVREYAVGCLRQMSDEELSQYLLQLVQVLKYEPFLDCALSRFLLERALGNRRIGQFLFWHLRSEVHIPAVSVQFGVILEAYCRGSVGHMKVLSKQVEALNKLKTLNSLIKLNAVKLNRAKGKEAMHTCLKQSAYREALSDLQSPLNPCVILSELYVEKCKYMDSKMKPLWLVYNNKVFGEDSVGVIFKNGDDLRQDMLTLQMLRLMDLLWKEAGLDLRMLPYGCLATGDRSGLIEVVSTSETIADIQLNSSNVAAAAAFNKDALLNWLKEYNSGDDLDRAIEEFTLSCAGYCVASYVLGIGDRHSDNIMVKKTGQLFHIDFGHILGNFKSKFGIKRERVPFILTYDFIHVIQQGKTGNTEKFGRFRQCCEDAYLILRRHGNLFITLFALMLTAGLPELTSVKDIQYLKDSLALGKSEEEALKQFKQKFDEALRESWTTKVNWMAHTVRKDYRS
T2 sequence (P27986 whole entry partner): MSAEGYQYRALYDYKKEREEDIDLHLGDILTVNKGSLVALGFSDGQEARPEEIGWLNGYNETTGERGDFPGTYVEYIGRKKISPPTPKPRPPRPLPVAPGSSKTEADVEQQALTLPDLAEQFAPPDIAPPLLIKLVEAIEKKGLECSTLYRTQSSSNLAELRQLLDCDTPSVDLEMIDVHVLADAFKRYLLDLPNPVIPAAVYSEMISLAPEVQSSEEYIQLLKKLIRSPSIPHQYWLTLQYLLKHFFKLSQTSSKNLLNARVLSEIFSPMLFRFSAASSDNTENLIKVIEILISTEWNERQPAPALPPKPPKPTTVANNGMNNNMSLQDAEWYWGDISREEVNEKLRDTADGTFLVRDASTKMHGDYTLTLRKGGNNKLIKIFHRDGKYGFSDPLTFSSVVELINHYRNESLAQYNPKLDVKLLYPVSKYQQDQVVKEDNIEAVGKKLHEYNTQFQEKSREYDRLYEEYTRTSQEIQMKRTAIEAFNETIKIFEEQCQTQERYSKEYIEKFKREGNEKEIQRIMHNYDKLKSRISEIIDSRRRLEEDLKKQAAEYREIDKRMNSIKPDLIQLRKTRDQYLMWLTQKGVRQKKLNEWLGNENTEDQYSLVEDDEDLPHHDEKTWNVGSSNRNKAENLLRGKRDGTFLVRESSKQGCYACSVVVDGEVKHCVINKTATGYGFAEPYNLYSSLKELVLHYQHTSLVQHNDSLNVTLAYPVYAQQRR
T1 sequence (P42336 whole entry): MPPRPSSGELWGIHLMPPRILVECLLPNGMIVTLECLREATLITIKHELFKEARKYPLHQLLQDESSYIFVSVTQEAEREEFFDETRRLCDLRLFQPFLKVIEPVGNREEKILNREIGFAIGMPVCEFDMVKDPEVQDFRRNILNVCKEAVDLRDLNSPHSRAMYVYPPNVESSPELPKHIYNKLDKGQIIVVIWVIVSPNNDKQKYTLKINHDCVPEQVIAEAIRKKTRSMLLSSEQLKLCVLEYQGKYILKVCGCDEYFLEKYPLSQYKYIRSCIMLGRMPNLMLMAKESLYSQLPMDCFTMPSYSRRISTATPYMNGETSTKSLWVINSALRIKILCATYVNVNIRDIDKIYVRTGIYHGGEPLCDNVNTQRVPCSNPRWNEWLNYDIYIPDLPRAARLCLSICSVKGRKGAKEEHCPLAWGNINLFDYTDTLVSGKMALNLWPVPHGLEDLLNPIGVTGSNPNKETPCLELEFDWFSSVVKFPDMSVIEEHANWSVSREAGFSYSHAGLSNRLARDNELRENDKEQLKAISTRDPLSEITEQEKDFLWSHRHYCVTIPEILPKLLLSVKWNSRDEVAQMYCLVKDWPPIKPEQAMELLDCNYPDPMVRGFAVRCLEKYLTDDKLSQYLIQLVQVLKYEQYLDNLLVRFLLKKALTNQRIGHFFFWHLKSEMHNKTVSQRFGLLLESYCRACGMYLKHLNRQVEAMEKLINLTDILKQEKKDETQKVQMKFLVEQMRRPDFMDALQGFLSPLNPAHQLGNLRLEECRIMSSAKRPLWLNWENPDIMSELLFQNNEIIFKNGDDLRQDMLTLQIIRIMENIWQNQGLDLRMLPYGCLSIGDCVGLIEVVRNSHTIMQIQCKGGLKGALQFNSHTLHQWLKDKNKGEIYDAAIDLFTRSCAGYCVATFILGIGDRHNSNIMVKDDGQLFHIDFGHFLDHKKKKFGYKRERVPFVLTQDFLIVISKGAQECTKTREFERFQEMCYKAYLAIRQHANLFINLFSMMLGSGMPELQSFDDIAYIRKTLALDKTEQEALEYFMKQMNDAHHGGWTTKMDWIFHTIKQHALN
T1 sequence (P27986 whole entry partner): as the sequence (P27986 whole entry partner) above
PI3Kδ, sequence (O00329 whole entry S253N): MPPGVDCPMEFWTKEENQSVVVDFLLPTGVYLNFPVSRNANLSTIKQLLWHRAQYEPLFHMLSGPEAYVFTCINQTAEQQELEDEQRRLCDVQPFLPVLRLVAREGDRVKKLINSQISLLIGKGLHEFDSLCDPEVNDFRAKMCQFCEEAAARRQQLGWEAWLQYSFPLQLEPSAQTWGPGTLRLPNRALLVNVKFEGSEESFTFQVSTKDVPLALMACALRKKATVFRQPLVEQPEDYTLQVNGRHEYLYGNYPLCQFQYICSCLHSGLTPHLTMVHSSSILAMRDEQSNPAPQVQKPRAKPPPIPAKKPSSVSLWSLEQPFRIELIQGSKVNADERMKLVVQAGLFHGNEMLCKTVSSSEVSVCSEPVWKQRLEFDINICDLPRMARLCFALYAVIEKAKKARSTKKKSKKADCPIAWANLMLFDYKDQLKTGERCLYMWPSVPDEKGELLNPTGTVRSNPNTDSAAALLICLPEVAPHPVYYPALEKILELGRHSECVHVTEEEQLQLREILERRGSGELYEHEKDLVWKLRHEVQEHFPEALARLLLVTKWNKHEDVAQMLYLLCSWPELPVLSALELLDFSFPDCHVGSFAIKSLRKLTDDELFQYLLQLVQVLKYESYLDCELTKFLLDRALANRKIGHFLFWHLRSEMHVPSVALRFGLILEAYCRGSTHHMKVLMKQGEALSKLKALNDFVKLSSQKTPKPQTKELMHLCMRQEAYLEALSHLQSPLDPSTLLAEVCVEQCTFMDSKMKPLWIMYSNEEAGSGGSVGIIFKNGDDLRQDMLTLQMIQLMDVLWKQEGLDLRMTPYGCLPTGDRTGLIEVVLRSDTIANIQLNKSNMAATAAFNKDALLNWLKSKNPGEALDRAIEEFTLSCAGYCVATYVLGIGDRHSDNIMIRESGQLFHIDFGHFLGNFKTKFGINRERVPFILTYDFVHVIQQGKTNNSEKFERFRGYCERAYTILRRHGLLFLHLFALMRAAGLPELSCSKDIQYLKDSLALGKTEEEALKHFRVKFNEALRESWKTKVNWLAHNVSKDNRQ
PI3Kδ, sequence (P27986 whole entry partner): as the sequence (P27986 whole entry partner) above

In the case of `O=c1c2ccccc2nc(CSc2ncnc3[nH]cnc23)n1-c1ccncc1` [Compound D-042, 2-(9H-purin-6-ylsulfanylmethyl)-3-pyridin-4-yl-3H-quinazolin-4-one], the IC50 worked out at 3 µM on PI3Kδ and 25 µM on PI3Kβ. Also, the “Alpha/Delta Ratio” value on PI3Kα (20 μM ATP) is listed as greater than 32. For the same compound, the remaining activity at 100 µM at PI3Kα (setting [1]) is 70%. The “Beta/Delta Ratio” value at PI3Kβ worked out at 8.
As for `Cc1ccccc1-n1c(Cn2cnc3c(N)ncnc32)nc2cccc(Cl)c2c1=O`, the melting point lay within 262 to 266.5 °C.
Consider `O=c1c2cc(Cl)ccc2nc(CSc2ncnc3[nH]cnc23)n1-c1ccccc1Cl` [Compound D-020, 6-Chloro-3-(2-chlorophenyl)-2-(9H-purin-6-ylsulfanylmethyl)-3H-quinazolin-4-one], for which the melting point was 237.1 to 238.2 °C (dec.). The IC50 at PI3Kδ was 1.9 µM. For the same compound, the “Alpha/Delta Ratio” value at PI3Kα (20 μM ATP) is recorded as greater than 53. Also, at PI3Kα (setting [1]), the remaining activity at 100 µM was 69%. Also, on PI3Kβ, the “Beta/Delta Ratio” value is greater than 53 and the remaining activity at 100 µM is 69%.
As for `COc1cc2nc(Cn3cnc4c(N)ncnc43)n(-c3ccccc3Cl)c(=O)c2cc1OC` [Compound D-001, 2-(6-Aminopurin-9-ylmethyl)-3-(2-chlorophenyl)-6,7-dimethoxy-3H-quinazolin-4-one], the melting point was 281.5 to 282.7 °C (dec.). Further, the IC50 at PI3Kδ was 68 µM. Also, the “Alpha/Delta Ratio” value on PI3Kα (20 μM ATP) is given as greater than 1.5. Besides, the remaining activity at 100 µM on PI3Kα (setting [1]) amounted to 83%. Besides, on PI3Kβ, the “Beta/Delta Ratio” value is 0.66 and the IC50 stood at 45 µM.
On to `CC(=O)O.CN1CCN(n2c(CSc3ncnc4[nH]cnc34)nc3ccccc3c2=O)CC1` [Compound D-044, 3-(4-methylpiperazin-1-yl)-2-(9H-purin-6-ylsulfanylmethyl)-3H-quinazolin-4-one, acetate salt], for which the IC50 on PI3Kδ was determined as 4.2 µM. Further, on PI3Kα (20 μM ATP), the “Alpha/Delta Ratio” value is listed as 25 and the IC50 worked out at 105 µM. For the same compound, at PI3Kβ, the “Beta/Delta Ratio” value was 15 and the IC50 stood at 61 µM.
`COc1ccccc1-n1c(CSc2ncnc3[nH]cnc23)nc2ccccc2c1=O` [Compound D-046, 3-(2-methoxyphenyl)-2-(9H-purin-6-ylsulfanylmethyl)-3H-quinazolin-4-one]: the “Alpha IC50 column: percent activity remaining at 100 μM” value on PI3Kα (20 μM ATP, 100 μM compound did not inhibit by at least 50%, 100 µM) stood at 64%. Besides, the “Alpha/Delta Ratio” value at PI3Kα (20 μM ATP) is greater than 11. In addition, the “Beta/Delta Ratio” value on PI3Kβ amounted to 11.
As for `Nc1ncnc2c1ncn2Cc1nc2ccc(Br)cc2c(=O)n1-c1ccccc1Cl` [Compound D-002, 2-(6-Aminopurin-o-ylmethyl)-6-bromo-3-(2-chlorophenyl)-3H-quinazolin-4-one], the melting point was 284.2 to 284.7 °C (dec.). Besides, on PI3Kδ, the IC50 turned out to be 44 µM. For the same compound, on PI3Kα (20 μM ATP), the “Alpha/Delta Ratio” value is listed as greater than 2.3. Moreover, the remaining activity at 100 µM at PI3Kα (setting [1]) stood at 88%. At PI3Kβ, the “Beta/Delta Ratio” value is given as greater than 2.3 and the remaining activity at 100 µM was determined as 78%.
Turning to `COc1ccccc1-n1c(Cn2cnc3c(N)ncnc32)nc2cccc(Cl)c2c1=O` [Compound D-033, 2-(6-Aminopurin-9-ylmethyl)-5-chloro-3-(2-methoxyphenyl)-3H-quinazolin-4-one], the melting point fell in the range of 257 to 257.1 °C.
Take `O=c1c2cc(Br)ccc2nc(CSc2ncnc3[nH]cnc23)n1-c1ccccc1Cl` [Compound D-017, 6-Bromo-3-(2-chlorophenyl)-2-(9H-purin-6-ylsulfanylmethyl)-3H-quinazolin-4-one]: the melting point was 212 to 242 °C (dec.). Besides, the IC50 on PI3Kδ turned out to be 12 µM. The “Alpha/Delta Ratio” value at PI3Kα (20 μM ATP) is greater than 8. Also, the remaining activity at 100 µM at PI3Kα (setting [1]) was 89%. Also, on PI3Kβ, the “Beta/Delta Ratio” value was greater than 8 and the remaining activity at 100 µM was 108%.
In the case of `CC(=O)O.Nc1ncnc2c1ncn2Cc1nc2ccccc2c(=O)n1N1CCOCC1` [Compound D-051, 2-(6-aminopurin-9-ylmethyl)-3-morpholin-4-yl-3H-quinazolin-4-one, acetate salt], the IC50 at PI3Kδ was 3.3 µM. Further, at PI3Kα (20 μM ATP), the “Alpha/Delta Ratio” value was greater than 31. For the same compound, the remaining activity at 100 µM at PI3Kα (read-out: percent activity remaining at 100 μM) turned out to be 89%. At PI3Kβ, the “Beta/Delta Ratio” value is greater than 31 and the remaining activity at 100 µM stood at 57%.
`CCCCn1c(Cn2cnc3c(N)ncnc32)nc2ccccc2c1=O` [Compound D-050, 2-(6-aminopurin-9-ylmethyl)-3-butyl-3H-quinazolin-4-one]: the IC50 on PI3Kδ is 1.6 µM; at PI3Kβ, 41 µM. Moreover, the “Alpha/Delta Ratio” value on PI3Kα (20 μM ATP) was greater than 63. For the same compound, on PI3Kα (setting [1]), the remaining activity at 100 µM was 99%. The “Beta/Delta Ratio” value at PI3Kβ was determined as 26.
`O=c1c2ccccc2nc(CSc2ncnc3[nH]cnc23)n1-c1ccc(Cl)cc1` [Compound D-052, 3-(4-chlorophenyl)-2-(9H-purin-6-ylsulfanylmethyl)-3H-quinazolin-4-one]: on PI3Kδ, the IC50 worked out at 8 µM. On PI3Kα (20 μM ATP), the “Alpha/Delta Ratio” value amounted to 0.09 and the IC50 was 0.7 µM. Besides, on PI3Kβ, the “Beta/Delta Ratio” value was greater than 13 and the remaining activity at 100 µM was 69%.
On to `COc1cc2nc(CSc3ncnc4[nH]cnc34)n(-c3ccccc3Cl)c(=O)c2cc1OC` [Compound D-016, 3-(2-Chlorophenyl)-6,7-dimethoxy-2-(9H-purin-6-ylsulfanylmethyl)-3H-quinazolin-4-one], for which the melting point was 160 to 180 °C (dec.). Besides, at PI3Kδ, the IC50 came to 40 µM. Also, the “Alpha/Delta Ratio” value on PI3Kα (20 μM ATP) was greater than 2.5. In addition, the remaining activity at 100 µM at PI3Kα (setting [1]) was found to be 91%. In addition, at PI3Kβ, the “Beta/Delta Ratio” value is greater than 3 and the remaining activity at 100 µM was found to be 81%.
Turning to `O=c1c2ccccc2nc(CSc2ncnc3[nH]cnc23)n1-c1cccc(Cl)c1` [Compound D-041, 3-(3-chlorophenyl)-2-(9H-purin-6-ylsulfanylmethyl)-3H-quinazolin-4-one], at PI3Kδ, the IC50 was determined as 4 µM. In addition, on PI3Kα (20 μM ATP), the “Alpha/Delta Ratio” value was greater than 25. At PI3Kα (setting [1]), the remaining activity at 100 µM stood at 67%. For the same compound, on PI3Kβ, the “Beta/Delta Ratio” value is listed as greater than 25 and the remaining activity at 100 µM came out at 65%.
`Nc1ncnc2c1ncn2Cc1nc2ccc(Cl)cc2c(=O)n1-c1ccccc1Cl` [Compound D-004, 2-(6-Aminopurin-9-ylmethyl)-6-chloro-3-(2-chlorophenyl)-3H-quinazolin-4-one]: the melting point is 294.5 to 294.8 °C (dec.). In addition, the IC50 at PI3Kδ was found to be 64 µM. Moreover, at PI3Kα (20 μM ATP), the “Alpha/Delta Ratio” value is reported as greater than 2. Moreover, the remaining activity at 100 µM on PI3Kα (setting [1]) worked out at 93%. On PI3Kβ, the “Beta/Delta Ratio” value is greater than 1.6 and the remaining activity at 100 µM is 89%.
As to `O=c1c2ccc([N+](=O)[O-])cc2nc(CSc2ncnc3[nH]cnc23)n1-c1ccccc1Cl` [Compound D-023, 3-(2-Chlorophenyl)-7-nitro-2-(9H-purin-6-ylsulfanylmethyl)-3H-quinazolin-4-one], the melting point is 218 to 218.3 °C (dec.). In addition, the IC50 at PI3Kδ stood at 26 µM. Further, the “Alpha/Delta Ratio” value at PI3Kα (20 μM ATP) was greater than 4. Also, the remaining activity at 100 µM at PI3Kα (setting [1]) was found to be 83%. Besides, at PI3Kβ, the “Beta/Delta Ratio” value is given as greater than 3.9 and the remaining activity at 100 µM is 91%.
Regarding `COc1cccc(-n2c(CSc3ncnc4[nH]cnc34)nc3ccccc3c2=O)c1` [Compound D-040, 3-(3-methoxyphenyl)-2-(9H-purin-6-ylsulfanylmethyl)-3H-quinazolin-4-one], on PI3Kδ, the IC50 was found to be 1.7 µM. For the same compound, the “Alpha/Delta Ratio” value at PI3Kα (20 μM ATP) was greater than 61. The remaining activity at 100 µM came to 77% at PI3Kα (setting [1]) and 64% at PI3Kβ. Further, the “Beta/Delta Ratio” value at PI3Kβ is recorded as greater than 61.
